Assay [1] relates to NF-κB. Put plainly: NF-κB luciferase reporter assay in transfected Cos-7 cells. In kind it is cell-based. In general terms: A reporter such as luciferase makes a cellular process visible.
The test system of assay [2] is IκBNS mRNA. Type of assay: cell-based, mouse.
Assay [3] concerns thymocytes in N15tg RAG-2−/− H-2b FTOC. The following applies: cited from earlier work.
Assay [4] has as its system NF-κB. Put plainly: NF-κB-sensitive reporter constructs in transiently transfected Jurkat T cells. Type of assay: cell-based.

In the case of `CCCCCCCCCCCCCC(=O)O[C@@H]1[C@@H](C)[C@@]2(O)[C@@H](C=C(CO)C[C@]3(O)C(=O)C(C)=C[C@@H]23)[C@@H]2C(C)(C)[C@]12OC(C)=O` [PMA, phorbol-12-myristate-13-acetate], the “increase in NF-κB luciferase activity relative to untreated cells” value in assay [1] (50 ng/ml for 7 h) is recorded as 5-10 fold.
`CC(C)C[C@H](N)C(=O)O` [L4]: the “IκBNS mRNA induction” value in assay [2] is given as “do not upregulate”. Further, the thymic selection outcome in assay [3] is given as “positive selection”.

B1: IκBNS: novel 327 amino acid IκB family protein with 7 ankyrin domains (SEQ ID NO: 4); expressed from Flag-tagged pcDNA3.1 construct (protein)
chain: MEDSLDTRLYPEPSLSQVGSWRVSSLPSGSPQLPSPTGPSLETARAHILALGPQQLLAQMEDDTYSLQGWRVSPSGPQPGPSLEARAHLALGPQQLLAQDEEGDTLLHLFAARGLRWAAYAAAEVLQMYRQLDIREHKGKTPLLVAAAANQPLIVEDLLDEEGDTLLHLFAARGLRWAAYAAAEVLQYRLDIREHKGKTPLLVAAAANQPLIVEDLLSLGAEPNATDHQGRSVLHVAATYGLPGVLSAVFKSGIQVDLEARDFEGLTPLHTAVLALNLGAEPNADHQGRSVLHVAATYGLPGVLAVSGQVDLEARDFEGLTPLHTALALNAAMLPASVCPRMQNSQARDRLTCVQMLLQMGASHTSQEIKSNKTILHLAVQAANPTLVQLAMPCPRQARDRLCVMLLQMGAHTSQEIKSNKTLHLAVQAANPTLVQLLLGLPRGDLRAFVNMKAHGNTALHMAAALPPGPPQEAIVRHLLAAGADPTLRNLENEQPVLLLPRGDLRFVNMKAHGNTALHMAAALPPGPQEAIVRHLLAAGADPTLRNLEGEQPVHLLRPGGPEGLRQLLKRSRTAPPGLSSHLLRPGGPEGLRQLLKRSRAPPGLSS
modifications: Flag tag; mouse
notes: expressed from Flag-tagged pcDNA3.1 construct
Consider B1, for which, in assay [1] (10 μg construct, PMA 50 ng/ml 7 h), the “effect of cotransfection on PMA-induced NF-κB-driven luciferase activity” value was “reduced NF-κB-driven luciferase activity to a level approaching that of cells transfected with the vector only”. Moreover, the “activity of NF-κB-sensitive reporter constructs” value in assay [4] is listed as “reduced the activity”.

The values above are taken from patent publication US20050084916A1, “Identification of the IkappaBNS protein and its products” (priority 2001, published 2005).
